This note sets out measurements from ChEMBL document CHEMBL1201862, “PubChem BioAssay data set” (2004).

Among the test systems are CAKI-1; COLO 205; HL-60; SF-268; SK-MEL-5; K562; Malme-3M; A498; A549; LOX IMVI; IGROV-1; NCI-H23; NCI-H460; OVCAR-5; HCT-15; MCF7; Hs-578T; MDA-MB-231; MDA-MB-435.
Holding throughout (test): NCI anticancer screen, dose series, 48 h

Each structure is given as a SMILES string.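 The compound was tested at five concentrations on cells cultured in 96-well plates, with a 48-hour exposure period. GI50 = concentration required for 50% inhibition of growth.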 Active and inactive are the calls of the source. No stated cut-off is given here; in the data, active = GI50 up to about 1.1 µM and inactive = higher.

For the compound `C=CCn1c(=S)sc2c(O)ncnc21`, the GI50 in the experiment on CAKI-1, in the experiment on COLO 205, with HL-60, in the experiment with SF-268, with SK-MEL-5 and in the experiment on K562 was > 100 µM (inactive) throughout. Also, the GI50 in the experiment with Malme-3M, in the experiment with A498, in the experiment on A549, in the experiment on LOX IMVI, in the experiment with IGROV-1 and in the experiment with NCI-H23 was > 100 µM (inactive) in each case. Moreover, the GI50 was > 100 µM (inactive) in the experiment on NCI-H460, > 100 µM (inactive) in the experiment on OVCAR-5 and above 100 µM in the experiment with HCT-15.

On to `COC(=O)C(C(=O)C(=O)Nc1ccc([N+](=O)[O-])cc1)c1nc2ccc([N+](=O)[O-])cc2nc1O` (stereo not drawn), for which the GI50 in the experiment with CAKI-1 was > 100 µM (inactive); in the experiment on COLO 205, > 100 µM (inactive); in the experiment on HL-60, 41.9 µM (inactive); in the experiment with SF-268, > 100 µM (inactive); in the experiment with SK-MEL-5, 65.6 µM (inactive); in the experiment on K562 it was 39.2 µM (inactive). In addition, the GI50 in the experiment with Malme-3M, with A498, in the experiment with A549, in the experiment on LOX IMVI, in the experiment with IGROV-1 and in the experiment with NCI-H23 was > 100 µM (inactive) throughout. Besides, the GI50 in the experiment on NCI-H460 is > 100 µM (inactive); with OVCAR-5, > 100 µM (inactive); in the experiment with HCT-15 it was above 100 µM.

On to `COC(=O)C(Cc1nc2ccccc2nc1C)/C(=N\NC(N)=O)C(=O)Nc1cccc([N+](=O)[O-])c1` (stereo not drawn), for which the GI50 with CAKI-1 is > 100 µM (inactive); with COLO 205, 88.3 µM (inactive); with HL-60 it was 36.1 µM (inactive); with SF-268, 64.9 µM (inactive); with SK-MEL-5, > 100 µM (inactive); with K562, 64.3 µM (inactive). The GI50 with Malme-3M is > 100 µM (inactive); with A498, > 100 µM (inactive); in the experiment on A549, > 100 µM (inactive); with LOX IMVI it was > 100 µM (inactive); in the experiment with IGROV-1 it was > 100 µM (inactive); in the experiment with NCI-H23, 71.8 µM (inactive). The GI50 with NCI-H460 was > 100 µM (inactive); in the experiment on OVCAR-5 it was > 100 µM (inactive); in the experiment on HCT-15 it was above 100 µM.

As for `Cc1ccc(N2C(=O)/C(=C3\Sc4c(nc(C)[nH]c4=O)N3c3ccccc3)SC2=S)cc1`, the GI50 in the experiment with CAKI-1 was > 100 µM (inactive); with COLO 205, > 100 µM (inactive); in the experiment with HL-60 it was > 100 µM (inactive); in the experiment with SF-268, 75.2 µM (inactive); in the experiment with SK-MEL-5 it was > 100 µM (inactive); with K562 it was 32 µM (inactive). The GI50 in the experiment with Malme-3M is 46.8 µM (inactive); with A498, 34.4 µM (inactive); with A549 it was 43 µM (inactive); in the experiment on LOX IMVI, 15.5 µM (inactive); with IGROV-1 it was 60.3 µM (inactive); in the experiment with NCI-H23, 19.8 µM (inactive). Further, the GI50 with NCI-H460 is 22.2 µM (inactive); with OVCAR-5, > 100 µM (inactive); with HCT-15, 16.4 µM.

In the case of `CN(CCN1C(=O)c2cccc3cccc(c23)C1=O)CCN1C(=O)c2cccc3cccc(c23)C1=O`, the GI50 was > 100 µM (inactive) in the experiment on CAKI-1; 84.3 µM (inactive) with MCF7; 2.55 µM (inactive) in the experiment on COLO 205; 12 µM (inactive) with Hs-578T; 68.7 µM (inactive) in the experiment on HL-60; 27.7 µM (inactive) with SF-268. Besides, the GI50 in the experiment with SK-MEL-5 was > 100 µM (inactive); in the experiment with K562, 73.1 µM (inactive); in the experiment with Malme-3M it was 6 µM (inactive); with A549 it was 27.6 µM (inactive); with LOX IMVI, 58.6 µM (inactive); in the experiment on MDA-MB-231 it was 13.7 µM (inactive). Besides, the GI50 with IGROV-1 is 17.4 µM (inactive); in the experiment on NCI-H23, 16.9 µM (inactive); in the experiment on NCI-H460, 16.3 µM (inactive); in the experiment with OVCAR-5, > 100 µM (inactive); in the experiment with MDA-MB-435 it was > 100 µM (inactive); with HCT-15 it was 0.178 µM.

Take `COC(=O)C1=CC2CC1C(S(=O)(=O)c1ccccc1)C2S(=O)(=O)c1ccccc1` (stereo not drawn): the GI50 with CAKI-1 is 7.83 µM (inactive); with COLO 205, 8.45 µM (inactive); in the experiment with HL-60, 2.62 µM (inactive); with SF-268 it was 22.9 µM (inactive); in the experiment on SK-MEL-5, 16.9 µM (inactive); in the experiment with K562 it was 5.14 µM (inactive). In addition, the GI50 in the experiment on Malme-3M is 10.7 µM (inactive); with A498 it was 17.6 µM (inactive); in the experiment with A549, 24.8 µM (inactive); in the experiment on LOX IMVI, 13.7 µM (inactive); in the experiment on IGROV-1, 32.7 µM (inactive); in the experiment with NCI-H23 it was 18.1 µM (inactive). The figures for the GI50 in the experiment with NCI-H460, with OVCAR-5 and in the experiment with HCT-15 were 21.6 µM (inactive), 14.7 µM (inactive) and 12.5 µM, respectively.

As for `C[N+]1([O-])CCC(O)(C2CC2)CC1` (stereo not drawn), the GI50 in the experiment on CAKI-1, in the experiment with MCF7, in the experiment with COLO 205, with Hs-578T, with HL-60 and in the experiment with SF-268 was > 100 µM (inactive) throughout. The GI50 in the experiment with SK-MEL-5, in the experiment on K562, with Malme-3M, with A549, in the experiment with LOX IMVI and in the experiment on MDA-MB-231 was > 100 µM (inactive) throughout. For the same compound, the GI50 with IGROV-1 was > 100 µM (inactive); with NCI-H23 it was > 100 µM (inactive); in the experiment with OVCAR-5, > 100 µM (inactive); in the experiment on MDA-MB-435, > 100 µM (inactive); in the experiment on HCT-15, above 100 µM.

Turning to `O=C(O)CCC1(CCC(=O)O)CCCCCCCCC(CCC(=O)O)(CCC(=O)O)C(=O)C1=O`, the GI50 in the experiment with CAKI-1, in the experiment with MCF7, with COLO 205, in the experiment with Hs-578T, in the experiment with HL-60 and in the experiment on SF-268 was > 100 µM (inactive) each time. Besides, the GI50 with K562, with Malme-3M, in the experiment on A549, with LOX IMVI, in the experiment on NCI-H23 and in the experiment on NCI-H460 was > 100 µM (inactive) in each case. In addition, the values for the GI50 in the experiment on OVCAR-5, with MDA-MB-435 and with HCT-15 were > 100 µM (inactive), > 100 µM (inactive) and above 100 µM, respectively.

On to `Cc1cc(C)c(N[S+]([O-])c2cccc([N+](=O)[O-])c2)c(C)c1` (stereo not drawn), for which the GI50 in the experiment with MCF7, in the experiment with COLO 205, with HL-60, in the experiment with SF-268, with K562 and with Malme-3M was > 100 µM (inactive) throughout. Besides, the GI50 in the experiment with A498, in the experiment with A549, with NCI-H23, in the experiment on NCI-H460, with OVCAR-5 and with MDA-MB-435 was > 100 µM (inactive) each time. The GI50 in the experiment on HCT-15 is above 100 µM.

Take `O=C1Nc2cccc(Cl)c2/C1=C\c1cccnc1`: the GI50 was 10.2 µM (inactive) in the experiment on CAKI-1; 4.02 µM (inactive) with MCF7; 3.32 µM (inactive) with COLO 205; 14.2 µM (inactive) with Hs-578T; 3.72 µM (inactive) with HL-60; 7.24 µM (inactive) with SF-268. Also, the GI50 in the experiment with SK-MEL-5 is 11.4 µM (inactive); in the experiment on K562, 5.85 µM (inactive); in the experiment with Malme-3M, 9.93 µM (inactive); in the experiment with A498 it was 21 µM (inactive); with A549 it was 11.1 µM (inactive); in the experiment on LOX IMVI, 0.944 µM (active). Also, the GI50 in the experiment on NCI-H23 is 3.75 µM (inactive); in the experiment on NCI-H460, 8.22 µM (inactive); in the experiment on OVCAR-5, 3.77 µM (inactive); with MDA-MB-435 it was 5.53 µM (inactive); in the experiment with HCT-15, 6.62 µM.

For `CCCC(N)C(=O)c1ccccc1` (stereo not drawn), the GI50 with CAKI-1, in the experiment with COLO 205, in the experiment on HL-60, in the experiment with SF-268, with SK-MEL-5 and in the experiment on K562 was > 100 µM (inactive) in each case. Further, the GI50 with Malme-3M, in the experiment with A498, in the experiment with A549, in the experiment with LOX IMVI, with IGROV-1 and in the experiment with NCI-H23 was > 100 µM (inactive) in each case. The figures for the GI50 with NCI-H460, with OVCAR-5 and with HCT-15 were > 100 µM (inactive), > 100 µM (inactive) and above 100 µM, respectively.

For the compound `CC(=O)NC(CCCOC(C)=O)C(=O)NC(CCCOC(C)=O)C(=O)NC(CCCOC(C)=O)C(=O)NC(Cc1ccc([N+](=O)[O-])cc1)C(=O)NCC(=O)OCc1ccccc1` (stereo not drawn), the GI50 in the experiment with CAKI-1, in the experiment with MCF7, in the experiment on COLO 205, in the experiment with Hs-578T, with SF-268 and with SK-MEL-5 was > 100 µM (inactive) in each case. Besides, the GI50 in the experiment with K562, with Malme-3M, with A498, in the experiment with A549, in the experiment on LOX IMVI and in the experiment with MDA-MB-231 was > 100 µM (inactive) in each case. The GI50 in the experiment on IGROV-1 was > 100 µM (inactive); in the experiment with NCI-H23 it was > 100 µM (inactive); in the experiment on NCI-H460, > 100 µM (inactive); in the experiment with OVCAR-5, > 100 µM (inactive); in the experiment with MDA-MB-435, > 100 µM (inactive); in the experiment with HCT-15, above 100 µM.
